Values belong to the compound of their own block, whether it stands above or below them.
Legend:
[1] = cited from earlier work
[2] = human trials, cited from earlier work
[3] = Serum NAG and glucosamine levels after oral ingestion of NAG or poly-NAG in healthy subjects (crossover, HPLC analysis); type: in vivo, human
Source text: Ten normal, healthy subjects (five men and five women ages 36-50) were randomly divided into two groups (designated as A and B). On Day-1 a fasting blood sample was collected from each patient. Following this, group A orally ingested 1.0 gram of NAG and group B ingested 1.0 gram of poly-NAG. On Day-2 the subjects again ingested one gram of the appropriate test substance before breakfast. On the third day a fasting blood sample was taken at time T=0. Subsequently, they consumed the final 1.0 gram of the appropriate test substance, and nonfasting blood samples were taken at 1, 2, 4, and 8 hours. Fasting blood samples were taken at 24 and 48 hours thereafter. […] On Day-8, after a fasting blood sampling, the groups were switched (i.e., group A took poly-NAG while group B consumed NAG) and the same procedure as shown above was repeated.
The data were analyzed using analytical HPLC procedure based on published methods for amino sugar analysis. The chromatographic system consisted of a Hewlett-Packard 1090M Liquid Chromatograph/Work Station equipped with a Diode Array Detector. Separation was by isocratic elution at 40° C. from a 300×7.8 mm Rezex Organic Acid Column (Phenomenex; N>75000 P/m) with 0.005N H2SO4 at a flow rate of 0.6 ml/min. The analytical conditions had been developed for resolution of the aminosugar/acetylated aminosugar components of physiological fluids, and the diode array detector was optimized at 193 nm for maximum sensitivity and minimum interference. The system was calibrated with standards before, during and after the study to assure there were no significant changes due to wear and tear or aging of the system. The chromatographic data were transferred to a spreadsheet and statistically tested with ANOVA (Single Factor, Two-Factor without Replication, Two-Factor with Replication) and paired T-tests.

Compound: N[C@H]1C(O)O[C@H](CO)[C@@H](O)[C@@H]1O (stereo partly shown) [glucosamine]
excreted in the feces ([1]; dog, in vivo): 1.7% | time of peak protein incorporation of glucosamine ([1]; incorporation into alpha and beta globulins): 8 h | excreted in urine ([1]; mainly as glucosamine): 34%

Compound: N[C@H]1C(O)O[C@H](CO)[C@@H](O)[C@@H]1O.O=S(=O)(O)O (stereo partly shown) [glucosamine sulfate]
effect on symptoms of osteoarthritis ([2]; pain, joint tenderness, swelling and mobility): significant improvement in the symptoms of pain, joint tenderness, swelling and mobility | adverse side effects or undesirable drug interactions [2]: not to have any adverse side effects or undesirable interactions with other drugs

subjects showing decreased serum NAG levels ([3]; 24 hours following cessation of ingestion, both groups together (4/20)): 20% | concentration of NAG in serum, Avg ([3]; Pre (pretest fasting sample before ingestion), 1.0 g per day oral): 10.3 nanomoles per ml of serum | subjects with increased serum NAG concentrations ([3]; T=0 compared with pretest values, fraction of 20 subject-periods): 6/20 | subjects showing an increase in serum NAG ([3]; T=1 hour compared with pretest value, fraction of 20 subject-periods): 8/20 | concentration at 0 h ([3]; both sexes, human, serum, T0, third day fasting, before final 1.0 g oral dose): 15.4 µM | concentration at 1 h ([3]; both sexes, human, serum, T1, 1 hour after final 1.0 g oral dose, nonfasting): 18.2 µM | concentration at 2 h ([3]; both sexes, human, serum, T2, 2 hours after final 1.0 g oral dose, nonfasting): 21 µM | concentration at 4 h ([3]; both sexes, human, serum, T4, 4 hours after final 1.0 g oral dose, nonfasting): 22.9 µM | concentration at 8 h ([3]; both sexes, human, serum, T8, 8 hours after final 1.0 g oral dose, nonfasting): 14.6 µM | concentration at 24 h ([3]; both sexes, human, serum, T24, 24 hours after final 1.0 g oral dose, fasting): 13.6 µM | concentration at 48 h ([3]; both sexes, human, serum, T48, 48 hours after final 1.0 g oral dose, fasting): 12.7 µM
Compound: CC(=O)N[C@H]1C(O)O[C@H](CO)[C@@H](O)[C@@H]1O (stereo partly drawn) [NAG, N-acetyl-D-glucosamine]
